The text below walks through data of ChEMBL document CHEMBL5226310, “Synthesis and Characterization of Novel Mono- and Bis-Guanyl Hydrazones as Potent and Selective ASIC1 Inhibitors Able to Reduce Brain Ischemic Insult” (J Med Chem, 2021).

The test system of assay [1] is Mus musculus. Briefly: Neuroprotective activity in mouse model of middle cerebral artery occlusion-induced transient brain ischemia assessed as ischemic volume at 6.5 mg/kg, ip administered thrice measured after 24 hrs relative to control. In kind it is functional.
In assay [2] the test system is Mus musculus. Briefly: Neuroprotective activity in mouse model of middle cerebral artery occlusion-induced transient brain ischemia assessed as reduction in general neurological deficits at 0.65 mg/kg, ip administered thrice measured upto 72 hrs. In kind it is functional, organism-based.
For assay [3], the system named is Mus musculus. Briefly: Neuroprotective activity in mouse model of middle cerebral artery occlusion-induced transient brain ischemia assessed as ischemic volume at 0.65 mg/kg, ip administered thrice measured after 24 hrs relative to control. Format: functional.
In assay [4] the test system is Cortical neurone. Briefly: Neuroprotective activity in OGD/Rx-induced E16 Wistar rat Primary cortical neurons assessed as increase in cell viability at 0.4 uM incubated for 3 hrs during OGD followed by reoxygenation with compound re-addition measured after 21 hrs by MTT assay. In kind it is functional, cell-based. The settings on record: time 24.0 hrs. (In general: Formazan colour is commonly taken as a measure of viable cells.)

Assay [5] concerns Mus musculus. Briefly: Neuroprotective activity in mouse model of middle cerebral artery occlusion-induced transient brain ischemia assessed as reduction in focal neurological deficits at 0.65 mg/kg, ip administered thrice measured after 24 hrs. In kind it is functional, organism-based.
The test system of assay [6] is Cortical neurone. Briefly: Neuroprotective activity in OGD/Rx-induced E16 Wistar rat Primary cortical neurons assessed as increase in cell viability at 0.4 uM incubated for 3 hrs during OGD followed by compound removal and reoxygenation measured after 21 hrs by MTT assay. In kind it is functional, cell-based.
The test system of assay [7] is Cortical neurone. Briefly: Neuroprotective activity in OGD/Rx-induced E16 Wistar rat Primary cortical neurons assessed as increase in cell viability incubated for 3 hrs during OGD followed by reoxygenation with compound re-addition measured after 21 hrs by MTT assay. In kind it is functional, cell-based. The following applies: time 24.0 hrs.
For assay [8], the system named is Mus musculus. Briefly: Neuroprotective activity in mouse model of middle cerebral artery occlusion-induced transient brain ischemia assessed as reduction in ischemic volume at 0.65 mg/kg, ip administered thrice measured upto 72 hrs relative to control. Also on record: scale not given: the % may be the effect or the level left. In kind it is functional.
The target of assay [9] is T1, Acid-sensing ion channel 1 (Homo sapiens) (UniProt P78348).
T1 sequence (whole entry): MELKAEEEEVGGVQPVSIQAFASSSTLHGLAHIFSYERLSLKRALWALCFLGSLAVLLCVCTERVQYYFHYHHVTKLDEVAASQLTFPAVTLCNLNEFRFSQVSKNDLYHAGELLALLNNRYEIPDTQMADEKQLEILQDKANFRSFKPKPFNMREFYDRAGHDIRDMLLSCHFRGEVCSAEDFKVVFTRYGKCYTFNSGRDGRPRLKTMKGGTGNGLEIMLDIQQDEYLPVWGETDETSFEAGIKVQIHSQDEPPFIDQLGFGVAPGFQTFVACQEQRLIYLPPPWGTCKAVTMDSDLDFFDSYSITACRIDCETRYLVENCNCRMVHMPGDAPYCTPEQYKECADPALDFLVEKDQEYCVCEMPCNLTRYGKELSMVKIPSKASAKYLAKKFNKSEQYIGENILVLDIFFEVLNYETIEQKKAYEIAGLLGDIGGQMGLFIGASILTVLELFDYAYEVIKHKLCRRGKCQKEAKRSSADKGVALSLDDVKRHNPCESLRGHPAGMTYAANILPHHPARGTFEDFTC
Briefly: Inhibition of ASIC1a in acid stimulated-human Neural Progenitor Cells assessed as reduction in current amplitude at pH 6.5 at 10 uM measured for 5 mins with acid stimulation for every 2 mins by electrophysiology (reference value: 92.41 +/- 33.66 pA). The following applies: Neural Progenitor Cell. Format: cell-based.

Assay [10] relates to Mus musculus. Briefly: Neuroprotective activity in mouse model of middle cerebral artery occlusion-induced transient brain ischemia assessed as decrease in ischemic volume at 0.65 mg/kg, ip administered thrice measured after 24 hrs (reference value: 58 +/- 2.6 %). Also on record: scale not given: the % may be the effect or the level left. In kind it is functional.
The target of assay [11] is T2, Acid-sensing ion channel 2 (Mus musculus) (UniProt Q925H0).
T2 sequence (whole entry): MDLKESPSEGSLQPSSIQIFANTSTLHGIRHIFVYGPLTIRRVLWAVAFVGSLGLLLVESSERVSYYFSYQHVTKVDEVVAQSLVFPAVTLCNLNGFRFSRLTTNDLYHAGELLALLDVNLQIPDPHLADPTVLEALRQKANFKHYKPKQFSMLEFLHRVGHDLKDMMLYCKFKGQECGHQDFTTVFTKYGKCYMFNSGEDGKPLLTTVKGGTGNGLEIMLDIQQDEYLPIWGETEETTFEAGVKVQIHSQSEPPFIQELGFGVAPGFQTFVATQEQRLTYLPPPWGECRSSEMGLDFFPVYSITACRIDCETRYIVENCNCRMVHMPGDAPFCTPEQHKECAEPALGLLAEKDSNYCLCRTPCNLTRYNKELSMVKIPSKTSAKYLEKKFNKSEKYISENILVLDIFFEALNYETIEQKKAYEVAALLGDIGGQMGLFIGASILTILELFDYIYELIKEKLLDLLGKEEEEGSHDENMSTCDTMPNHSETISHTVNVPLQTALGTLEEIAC
Briefly: Inhibition of mouse ASIC2a expressed in genetically engineered-CHO-K1 cells at 10 uM preincubated for 10 mins at pH 7.4 followed by cell stimulation with proton injection at pH 6.5 by electro-chromic fluorescence voltage sensor-based assay relative to control.

In assay [12] the target is T3, Acid-sensing ion channel 1 (Mus musculus) (UniProt Q6NXK8).
T3 sequence (whole entry): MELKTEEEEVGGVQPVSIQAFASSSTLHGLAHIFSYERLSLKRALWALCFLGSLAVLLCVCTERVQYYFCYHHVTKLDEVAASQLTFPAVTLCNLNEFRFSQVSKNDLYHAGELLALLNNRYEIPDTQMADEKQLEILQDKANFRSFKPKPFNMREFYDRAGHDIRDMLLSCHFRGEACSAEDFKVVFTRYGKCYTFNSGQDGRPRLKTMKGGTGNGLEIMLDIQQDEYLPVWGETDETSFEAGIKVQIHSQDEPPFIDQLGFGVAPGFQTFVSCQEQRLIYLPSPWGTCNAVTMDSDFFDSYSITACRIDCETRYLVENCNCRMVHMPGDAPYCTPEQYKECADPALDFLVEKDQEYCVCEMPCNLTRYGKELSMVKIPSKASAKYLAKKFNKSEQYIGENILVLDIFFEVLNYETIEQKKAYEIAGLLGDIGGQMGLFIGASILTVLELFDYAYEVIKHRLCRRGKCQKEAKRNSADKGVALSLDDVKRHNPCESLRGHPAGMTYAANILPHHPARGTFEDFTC
Briefly: Inhibition of mouse ASIC1a expressed in genetically engineered-CHO-K1 cells at 10 uM preincubated for 10 mins at pH 7.4 followed by cell stimulation with proton injection at pH 6.5 by electro-chromic fluorescence voltage sensor-based assay relative to control.

The target in assay [13] is T4, Acid-sensing ion channel 1 (Homo sapiens, UniProt P78348).
T4 sequence (P78348 whole entry): T1 sequence (whole entry)
Briefly: Inhibition of human ASIC1a in HEK293 cells assessed as inward proton-gated current at pH 6.0 incubated with compound followed by PcTx1 addition by patch-clamp electrophysiology. In kind it is cell-based. A general note: The patch-clamp technique gives a direct electrical read-out from membranes.

Assay [14] concerns the target T1, Acid-sensing ion channel 1 (Homo sapiens). Briefly: Inhibition of ASIC1a in acid stimulated-human Neural Progenitor Cells assessed as reduction in current amplitude at pH 6.5 at 10 uM measured for 5 mins with acid stimulation for every 2 mins by electrophysiology relative to control. In kind it is cell-based. The settings on record: Neural Progenitor Cell.
Assay [15] deals with Mus musculus. Briefly: Neuroprotective activity in mouse model of middle cerebral artery occlusion-induced transient brain ischemia assessed as reduction in focal neurological deficits at 0.65 mg/kg, ip administered thrice measured upto 72 hrs. Format: functional, organism-based.
Assay [16] concerns Mus musculus. Briefly: Neuroprotective activity in mouse model of middle cerebral artery occlusion-induced transient brain ischemia assessed as reduction in general neurological deficits at 0.65 mg/kg, ip administered thrice measured after 24 hrs. Format: functional, organism-based.

Active and inactive are the calls of the source. The calls are words filed in the database; no cut-off is given here.

In the case of `Cl.N=C(N)N/N=C\c1ccc(-c2cccc(-c3ccc(/C=N/NC(=N)N)cc3)c2)cc1`, the Activity in assay [1] was 50.1%; in assay [3], 47.1%; in assay [7], “Dose-Dependent Effect”; in [8], 35.3%; in [9] it was 9.37 pA; in assay [10], 34.7%. In addition, the outcome in assay [2], in [4], in assay [5], in assay [6], in assay [15] and in assay [16] was Active. For the same molecule, the inhibition in [11] was determined as 35.4%; in assay [12] it was 53%; in assay [14] it was 70%. In addition, the IC50 in [13] was determined as 407 nM.

The inhibition is the percentage by which the read-out fell short of the control. As usually defined, the IC50 is the concentration needed to halve the response being measured.
